Assay results: US20250368648A1, “MULTI-CYCLIC IRAK AND FLT3 INHIBITING COMPOUNDS AND USES THEREOF” (CHILDREN'S HOSPITAL MEDICAL CENTER, priority 2022, published 2025)

Tests used:
THP1 cells = experiment: Combination drug screening, Cell Titer Glo, THP1 cells; conditions: THP1 cells; for Excess HSA Score: sum score, 10 × 10 dataset, 48 hours;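 for all read-outs here: luminescence read out in 1536-well plates seeded with 500 THP1 cells per well, each drug spanning a 10-point concentration range in the combination matrix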
Source text: A smaller concentration indicates higher potency to synergize with Venetoclax. […] The numbers in each cell represent the % response (left) or the Delta Bliss score (right) at each given concentration combination.
A smaller concentration indicates higher potency to synergize with azacitidine. […] The numbers in each cell represent the % response (left) or the Delta Bliss score (right) at each given concentration combination.
(§1) This is a cell line that has the FLT3 ITD mutation but also the FLT3 D835Y kinase domain mutation. […] Excess HSA is a measure of synergy vs. additivity or antagonism, wherein a negative Excess HSA value is indicative of synergy.
Briefly, 10 nL of compounds were acoustically dispensed into 1536-well white polystyrene tissue culture-treated plates with an Echo 550 acoustic liquid handler (Labcyte). MOLM14 (D835Y) or THP1 cells were then added to compound-containing plates at a density of 500-cells/well in 5 μL of medium. A 10-point custom concentration range was used for all listed drugs. […] 48h post compound addition, 3 μL of Cell Titer Glo (Promega) were added to each well and plates were incubated at room temperature for 15 minutes with the stainless-steel lid in place. Luminescence readings were taken using a Viewlux imager (PerkinElmer) with a 2 second exposure time per plate.

MOLM14 (D835Y) cells = experiment: Combination drug screening, Cell Titer Glo, MOLM14 (D835Y) cells; conditions: MOLM14(D835Y) cells; for Excess HSA Score: sum score, listed as compound in combination with Compound 106, 48 hours;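 for all read-outs here: MOLM14 cells with FLT3 ITD plus D835Y, 500 per well in 1536-well plates, 10-point dose ranges, luminescent viability after 48 h, negative Excess HSA indicates synergy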
Procedure: Briefly, 10 nL of the compound shown below was acoustically dispensed into 1536-well white polystyrene tissue culture-treated plates with an Echo 550 acoustic liquid handler (Labcyte). Cells were then added to compound-containing plate at a density of 500-cells/well in 5 μL of medium. A 6-point or 10-point custom concentration range was used for all listed drugs. Plates were incubated for 48 hours at standard incubator conditions covered by a stainless steel gasketed lid to prevent evaporation. 48h post compound addition, 3 μL of Cell Titer Glo (Promega) were added to each well and plates were incubated at room temperature for 15 minutes with the stainless-steel lid in place. Luminescence readings were taken using a Viewlux imager (PerkinElmer) with a 2 second exposure time per plate.
A smaller concentration indicates higher potency to synergize with Venetoclax.
A smaller concentration indicates higher potency to synergize with azacitidine.
as §1

[1] = listed as compound in combination with CG-806 (a FLT3/BTK inhibitor)
[2] = listed as compound in combination with Compound 45a
[3] = listed as compound in combination with Compound 46a
[4] = listed as compound in combination with Compound 47a
[5] = listed as compound in combination with Compound 48a
[6] = listed as compound in combination with Compound 102
[7] = listed as compound in combination with Compound 106
[8] = listed as compound in combination with Gilteritinib (a FLT3/AXL inhibitor)
[9] = listed as compound in combination with PF-06650833 (an IRAK4 selective inhibitor)
[10] = listed as compound in combination with Quizartinib (a FLT3/Kit/PDGFRa inhibitor)
[11] = listed as compound in combination with emavusertib (CA-4948) (a FLT3/IRAK4 inhibitor)
[12] = combination therapy of CG-806 (a FLT3/BTK inhibitor) and the named additional compound, 110 × 10 dataset
[13] = combination therapy of Compound 45a and the named additional compound, 110 × 10 dataset
[14] = combination therapy of Compound 46a and the named additional compound, 110 × 10 dataset
[15] = combination therapy of Compound 47a and the named additional compound, 110 × 10 dataset
[16] = combination therapy of Compound 48a and the named additional compound, 110 × 10 dataset
[17] = combination therapy of Compound 102 and the named additional compound, 10 × 10 dataset
[18] = combination therapy of Gilteritinib (a FLT3/AXL inhibitor) and the named additional compound, 110 × 10 dataset
[19] = combination therapy of PF-06650833 (an IRAK4 selective inhibitor) and the named additional compound, 110 × 10 dataset
[20] = combination therapy of Quizartinib (a FLT3/Kit/PDGFRa inhibitor) and the named additional compound, 110 × 10 dataset
[21] = combination therapy of emavusertib (CA-4948) (a FLT3/IRAK4 inhibitor) and the named additional compound, 110 × 10 dataset

SMILES	Excess HSA Score (THP1 cells; [1])	Excess HSA Score (THP1 cells; [2])	Excess HSA Score (THP1 cells; [3])	Excess HSA Score (THP1 cells; [4])	Excess HSA Score (THP1 cells; [5])	Excess HSA Score (THP1 cells; [6])	Excess HSA Score (THP1 cells; [7])	Excess HSA Score (THP1 cells; [8])	Excess HSA Score (THP1 cells; [9])	Excess HSA Score (THP1 cells; [10])	Excess HSA Score (THP1 cells; [11])	Sum Excess HSA Score (MOLM14 (D835Y) cells; [12])	Sum Excess HSA Score (MOLM14 (D835Y) cells; [13])	Sum Excess HSA Score (MOLM14 (D835Y) cells; [14])	Sum Excess HSA Score (MOLM14 (D835Y) cells; [15])	Sum Excess HSA Score (MOLM14 (D835Y) cells; [16])	Sum Excess HSA Score (MOLM14 (D835Y) cells; [17])	Sum Excess HSA Score (MOLM14 (D835Y) cells; [18])	Sum Excess HSA Score (MOLM14 (D835Y) cells; [19])	Sum Excess HSA Score (MOLM14 (D835Y) cells; [20])	other results
COc1cc(F)ccc1-c1cc(Nc2cc(CS(C)(=N)=O)ccn2)ncc1F (single isomer, unassigned; (+)) [(+)-BAY-1251152, BAY1251152]	−199.4	−860.7	−263.4	−21.17	97	−265.1	−427.1	−656.6	−758.9	454.7	−51.35	1704	−157.4	−133.4976	−727.7	−215.2	−20.6	362.2497	−386	−511.9	Comments (THP1 cells; combination with PF-06650833): Synergistic (a negative Excess HSA value is indicative of synergy); Sum Excess HSA Score (MOLM14 (D835Y) cells; [21]): 274; Excess HSA Score (MOLM14 (D835Y) cells; 10 × 10 dataset): −865.6
CC(C)[C@@H](CS(=O)(=O)C(C)C)N1C(=O)[C@@](C)(CC(=O)O)C[C@H](c2cccc(Cl)c2)[C@H]1c1ccc(Cl)cc1 [AMG-232, navtemadlin]	917.1	441	229.7	364.2	420.6	−171.2	394.3	24.49	−179	−91.44	125.5	−536.7	−165.5	−654.7	−325.2	224.1	−197.3	−113	−1066	−1109	Sum Excess HSA Score (MOLM14 (D835Y) cells; [21]): −373.7; Excess HSA Score (MOLM14 (D835Y) cells; 10 × 10 dataset): −640.2
NC1(C(=O)N[C@@H](CCO)c2ccc(Cl)cc2)CCN(c2nc[nH]c3nccc2-3)CC1 [AZD-5363, capivasertib]	−189.8	−1027.6539	−276.8	124.8	−732.6	−198.6	−134.3	989.6	−649.7	17.2569	−1144.9723	−2332	−239.9	637.8	−894	−939.6	−439.3	−966.8597	47.56	−1637	Comments (THP1 cells; combination with Compound 48a): Synergistic (a negative Excess HSA value is indicative of synergy); Comments (THP1 cells; combination with emavusertib (CA-4948)): Synergistic (a negative Excess HSA value is indicative of synergy); Comments (synergistic / antagonistic) (MOLM14 (D835Y) cells; [12]): Synergistic (a negative Excess HSA value is indicative of synergy); Sum Excess HSA Score (MOLM14 (D835Y) cells; [21]): −850.1; Excess HSA Score (MOLM14 (D835Y) cells; 10 × 10 dataset): −105.2
COCC1(CO)C(=O)C2CCN1CC2 (stereo not shown) [Eprenetapopt/APR-246, APR-246 (Eprenetapopt)]	300.5	−629.2	603.9	−14.7	−33.1	171.5	268	365.9	−225.6	437.691	482.6	−271.7	284.5	−183.2	366.1	−140.8	−55.14	647.6	−566	−652.9	Sum Excess HSA Score (MOLM14 (D835Y) cells; [21]): 504.1; Excess HSA Score (MOLM14 (D835Y) cells; 10 × 10 dataset): −43.15
N#Cc1ccnc(N2C(=O)CC[C@H]2C(=O)N(c2cncc(F)c2)[C@H](C(=O)NC2CC(F)(F)C2)c2ccccc2Cl)c1 [Ivosidenib, ivosidenib]	93.96	−296.7	−42.9834	−122.1	−0.4511	−215.7606	354.6	338	−152.4	177.8	285	−199.6	259.8	−118.7	218.5	−299.6	−713.3	347.6	−172.4	244.1367	Sum Excess HSA Score (MOLM14 (D835Y) cells; [21]): 35.12; Excess HSA Score (MOLM14 (D835Y) cells; 10 × 10 dataset): 28.0568
Nc1cccc2c1CN(C1CCC(=O)NC1=O)C2=O (stereo not shown) [Lenalidomide]	534	−245.1	533.2	188.9	−51.13	12.2	386.8	355	74.4868	472.5204	1167	141.5	784.7	12.1	868.6	405.4	59.07	527.6728	−429.8	565.7343	Sum Excess HSA Score (MOLM14 (D835Y) cells; [21]): 390.3; Excess HSA Score (MOLM14 (D835Y) cells; 10 × 10 dataset): 754.6
CC(=O)c1c(C)c2cnc(Nc3ccc(N4CCNCC4)cn3)nc2n(C2CCCC2)c1=O [Palbociclib]	−368.3	−912.2	−907.6	−166.9	−166.7	−116.5	−590.5	−826.9	−610	−794.7	190.2	−246	−715.3	−844.8	−616.3	−583.3	−537.2	−576.9	94.98	−1120	Comments (THP1 cells; combination with Quizartinib): Synergistic (a negative Excess HSA value is indicative of synergy); Sum Excess HSA Score (MOLM14 (D835Y) cells; [21]): −557.8; Excess HSA Score (MOLM14 (D835Y) cells; 10 × 10 dataset): −252.8
C[C@]12C=CC(=O)C=C1CC[C@@H]1[C@@H]2[C@@H](O)C[C@@]2(C)[C@H]1CC[C@]2(O)C(=O)CO [Prednisolone, prednisolone]	335.9	438.5	174.9	134.6	511.8	26.91	274.3	−110.9078	−254.8	−81.1	70.05	−218	−106.5	−52.71	−58.8974	−339.3	−260.2	−583.8	−431.6	213.4	Sum Excess HSA Score (MOLM14 (D835Y) cells; [21]): −4.3456; Excess HSA Score (MOLM14 (D835Y) cells; 10 × 10 dataset): −5.273
